In article PMC12119672, “Development and evaluation of [^11C]DPA-813 and [^18F]DPA-814: novel TSPO PET tracers insensitive to human single nucleotide polymorphism rs6971” (European Journal of Nuclear Medicine and Molecular Imaging, 2025):

Columns and labels:
A147T TSPO = tested on: A147T TSPO; parameters: method as in PMID 30900397; settings: cited from earlier work
WT human TSPO [1] = biological target: T1, WT human TSPO (Homo sapiens, UniProt P30536); experiment: Competition radioligand binding vs [3H]PK 11195, membranes of transfected HEK-293T cells (WT TSPO); settings: vs [3H]PK 11195 (10 nM), HEK-293T membranes, mean ± SEM; read-out: Ki WT hTSPO
T1 construct: expressed in transfected cells
T1 sequence (P30536 whole entry T147A): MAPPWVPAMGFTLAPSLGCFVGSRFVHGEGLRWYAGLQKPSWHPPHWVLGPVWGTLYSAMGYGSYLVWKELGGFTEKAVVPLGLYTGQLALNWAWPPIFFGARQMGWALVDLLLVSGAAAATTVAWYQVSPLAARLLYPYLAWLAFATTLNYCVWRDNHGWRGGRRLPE
Description: (§1) Binding affinities (Ki) to wild-type (WT) and A147T human TSPO were assessed using a previously published method. HEK-293T cells were stably transfected with WT and A147T TSPO. Membranes were isolated from each cell line using an Ultra-Turrax hand-held homogeniser. These cells have been previously validated as an in vitro model for low- and high-affinity TSPO binding. […] Non-specific binding was determined using a saturating concentration (1 µM) of non-tritiated PK 11195. This non-specific binding contributed less than 10% of total binding. Reactions were halted by filtering through a 96-well glass-fibre filter plate (Millipore), followed by eight washes with ice-cold 50 mM Tris HCl. Microscint 0 was added to the plate and resultant radioactivity-related photons were collected by a Microbeta 2450 (PerkinElmer). Ki values were fit to a competition binding curve fit on non-specific binding-corrected data using GraphPad Prism 10.0 (GraphPad). Results are presented as mean ± standard error of the mean (SEM) from at least three independent experiments. Binding affinities (Ki) to rat TSPO were measured in duplicate by Eurofins Panlabs Discovery Services (assay #226700) (Supplementary Fig. 12). Single-dose (10 µM) off-target in vitro screening was performed in duplicate by Eurofins Panlabs Discovery Services (Supplementary Table 5).
(§2) In vitro binding affinities (Ki) for human TSPO were initially assessed using a competition radioligand assay against [^3H]PK 11195 in our well-characterised assay using membranes isolated from transfected HEK-293T cells overexpressing either WT or A147T TSPO [32]. This structure-activity relationship study will be reported in a separate publication. […] Data for DPA-713 and DPA-714 are included for comparison.

WT human TSPO [2] = biological target: T2, WT human TSPO (Homo sapiens, UniProt P30536, T147A); experiment: as above; settings: DPA-813 vs DPA-713; DPA-814 vs DPA-714
T2 construct: expressed in transfected cells
T2 sequence (P30536 whole entry T147A): as above
Description: as §1, §2

A147T human TSPO = biological target: T3, A147T human TSPO (Homo sapiens, UniProt P30536); experiment: Competition radioligand binding vs [3H]PK 11195, membranes of transfected HEK-293T cells (A147T TSPO); settings: for increase in affinity to A147T TSPO versus parent compound: DPA-813 vs DPA-713, DPA-814 vs DPA-714; for Ki: vs [3H]PK 11195 (10 nM), HEK-293T membranes, mean ± SEM, read-out: Ki A147T hTSPO
T3 construct: expressed in transfected cells
T3 sequence (P30536 whole entry, stated change not applied): as the sequence (P30536 whole entry T147A) above, with A147T counted along it
Description: as §1, §2

rat TSPO = biological target: T4, rat TSPO (Rattus norvegicus, UniProt P16257); experiment: Competitive binding to rat TSPO vs [3H]PK 11195 (Eurofins assay #226700, rat heart membranes); settings: vs [3H]PK 11195, result in words
T4 construct: Heart of male Wistar derived rats weighing 175 ± 25 g are used to prepare peripheral benzodiazepine membrane receptors [TSPO]; tissue Eurofins Panlabs Discovery Services assay #226700; host or cells: rat heart (male Wistar derived)
Description: as §1
Supplementary Figure 12 Dose-response curves and binding affinities of DPA-813 and DPA-814 showing competitive binding to rat TSPO vs [^3H]PK 11195. Method from Eurofins: Heart of male Wistar derived rats weighing 175 ± 25 g are used to prepare peripheral benzodiazepine membrane receptors [TSPO] in modified Tris-HCl buffer pH 7.5. A 0.25 mg aliquot is incubated with 0.3 nM [^3H]PK 11195 for 15 minutes at 25 °C. Non-specific binding is estimated in the presence of 100 μM Dipyridamole. Membranes are filtered and washed, the filters are then counted to determine [^3H]PK 11195 specifically bound.

[3] = Lipophilicity (logD at pH 7.4) by gradient HPLC; format: physicochemical; settings: gradient HPLC retention correlated with standard compounds; pH 7.4, gradient HPLC; read-out: logD7.4
From the text: Partition coefficient values (logD) were estimated at pH 7.4 by correlating chromatographic retention properties against the characteristics of a series of standard compounds with known partition coefficient values. The method employed a gradient HPLC based on a previously published method.

[4] = tested on: Central Benzodiazepine Receptor; experiment: Off-target screen, 10 µM single dose (Eurofins); parameters: species or system human; settings: n = 2, inhibition of agonist radioligand binding
Description: as §1, with “Results are presented as mean ± standard error of the mean (SEM) from at least three independent experiments.” left out, “Single-dose (10 µM) off-target in vitro screening was performed in duplicate by Eurofins Panlabs Discovery Services (Supplementary Table 5).” left out
(§3) Supplementary Table 5. […] 10 μM single dose (n = 2) screen performed by Eurofins Panlabs Discovery. ^a All targets are human receptors. ^b Inhibition of antagonist radioligand binding. ^c Inhibition of agonist radioligand binding. ^d Enzymatic functional readout.

5-HT2A = biological target: T5, 5-HT2A (Homo sapiens, UniProt P28223); experiment: Off-target screen, 10 µM single dose (Eurofins); settings: read-out: % Binding Inhibition at 10 μM, 5-HT2A
T5 construct: purchased Eurofins Panlabs Discovery Services
T5 sequence (P28223 whole entry): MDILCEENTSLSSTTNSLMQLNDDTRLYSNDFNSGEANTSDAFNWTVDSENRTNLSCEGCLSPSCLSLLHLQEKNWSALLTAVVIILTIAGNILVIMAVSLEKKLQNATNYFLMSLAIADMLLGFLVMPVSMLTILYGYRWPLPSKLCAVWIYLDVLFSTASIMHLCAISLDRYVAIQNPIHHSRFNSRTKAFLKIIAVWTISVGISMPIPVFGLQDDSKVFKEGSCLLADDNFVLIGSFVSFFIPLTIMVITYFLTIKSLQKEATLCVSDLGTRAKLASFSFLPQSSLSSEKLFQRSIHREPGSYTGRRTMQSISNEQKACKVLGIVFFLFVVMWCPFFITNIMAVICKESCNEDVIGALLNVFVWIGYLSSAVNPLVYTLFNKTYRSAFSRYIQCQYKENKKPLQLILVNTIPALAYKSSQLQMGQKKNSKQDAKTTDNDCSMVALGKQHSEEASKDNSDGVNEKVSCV
Description: as §1
(§4) Supplementary Table 5. Off-target binding to common CNS targets. 10 μM single dose (n = 2) screen performed by Eurofins Panlabs Discovery. ^a All targets are human receptors. ^b Inhibition of antagonist radioligand binding. ^c Inhibition of agonist radioligand binding. ^d Enzymatic functional readout.

5-HT2B = biological target: T6, 5-HT2B (Homo sapiens, UniProt P41595); experiment: Off-target screen, 10 µM single dose (Eurofins); settings: read-out: % Binding Inhibition at 10 μM, 5-HT2B
T6 construct: purchased Eurofins Panlabs Discovery Services
T6 sequence (P41595 whole entry): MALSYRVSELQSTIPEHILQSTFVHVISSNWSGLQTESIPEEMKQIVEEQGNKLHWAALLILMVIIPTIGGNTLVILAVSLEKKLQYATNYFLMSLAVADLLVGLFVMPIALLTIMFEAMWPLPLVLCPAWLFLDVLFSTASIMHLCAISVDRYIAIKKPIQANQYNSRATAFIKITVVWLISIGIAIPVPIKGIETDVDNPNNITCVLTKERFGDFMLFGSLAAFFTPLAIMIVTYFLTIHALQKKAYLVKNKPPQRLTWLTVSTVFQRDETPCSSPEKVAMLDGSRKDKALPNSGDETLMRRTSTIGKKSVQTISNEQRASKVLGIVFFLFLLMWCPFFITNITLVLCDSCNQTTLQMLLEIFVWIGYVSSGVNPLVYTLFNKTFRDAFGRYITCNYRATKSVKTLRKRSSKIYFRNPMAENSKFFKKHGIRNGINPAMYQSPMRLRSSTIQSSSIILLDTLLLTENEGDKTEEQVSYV
Description: as §1, §4

CB1 = biological target: T7, CB1 (Homo sapiens, UniProt P21554); experiment: Off-target screen, 10 µM single dose (Eurofins); settings: read-out: % Binding Inhibition at 10 μM, CB1
T7 construct: purchased Eurofins Panlabs Discovery Services
T7 sequence (P21554 whole entry): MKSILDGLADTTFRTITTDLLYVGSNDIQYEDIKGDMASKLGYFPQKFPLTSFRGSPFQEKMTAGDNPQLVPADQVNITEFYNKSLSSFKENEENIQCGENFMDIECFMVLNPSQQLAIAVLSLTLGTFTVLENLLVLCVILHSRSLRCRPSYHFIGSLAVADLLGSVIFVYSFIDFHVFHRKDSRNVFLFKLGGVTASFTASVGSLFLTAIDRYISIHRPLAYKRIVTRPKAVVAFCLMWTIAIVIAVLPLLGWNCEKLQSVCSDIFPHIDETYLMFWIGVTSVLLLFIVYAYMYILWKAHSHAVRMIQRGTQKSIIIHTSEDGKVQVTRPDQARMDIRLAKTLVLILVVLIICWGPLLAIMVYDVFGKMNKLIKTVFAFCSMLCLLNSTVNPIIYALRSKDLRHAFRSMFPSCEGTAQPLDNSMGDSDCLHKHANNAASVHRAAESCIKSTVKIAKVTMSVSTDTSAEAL
Description: as §1, §4

CB2 = biological target: T8, CB2 (Homo sapiens, UniProt P34972); experiment: Off-target screen, 10 µM single dose (Eurofins); settings: read-out: % Binding Inhibition at 10 μM, CB2
T8 construct: purchased Eurofins Panlabs Discovery Services
Description: as §1, §4

D1 = biological target: T9, D1 (Homo sapiens, UniProt P21728); experiment: Off-target screen, 10 µM single dose (Eurofins); settings: read-out: % Binding Inhibition at 10 μM, D1
T9 construct: purchased Eurofins Panlabs Discovery Services
T9 sequence (P21728 whole entry): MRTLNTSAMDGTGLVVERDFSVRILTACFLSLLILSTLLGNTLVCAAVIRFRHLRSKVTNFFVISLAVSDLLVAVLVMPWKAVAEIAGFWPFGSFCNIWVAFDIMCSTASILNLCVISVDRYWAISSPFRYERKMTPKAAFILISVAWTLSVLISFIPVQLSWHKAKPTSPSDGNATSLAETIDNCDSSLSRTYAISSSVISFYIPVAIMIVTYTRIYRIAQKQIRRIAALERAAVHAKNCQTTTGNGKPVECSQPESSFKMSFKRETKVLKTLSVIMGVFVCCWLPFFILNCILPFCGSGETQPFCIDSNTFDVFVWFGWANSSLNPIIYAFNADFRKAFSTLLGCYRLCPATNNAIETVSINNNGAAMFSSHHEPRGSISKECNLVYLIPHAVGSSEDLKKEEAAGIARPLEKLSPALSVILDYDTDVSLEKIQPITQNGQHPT
Description: as §1, §4

D2L = biological target: T10, D2L (Homo sapiens, UniProt P14416); experiment: Off-target screen, 10 µM single dose (Eurofins); settings: read-out: % Binding Inhibition at 10 μM, D2L
T10 construct: purchased Eurofins Panlabs Discovery Services
Description: as §1, §4

DAT = biological target: T11, DAT (Homo sapiens, UniProt Q01959); experiment: Off-target screen, 10 µM single dose (Eurofins); settings: read-out: % Binding Inhibition at 10 μM, DAT
T11 construct: purchased Eurofins Panlabs Discovery Services
Description: as §1, §4

M1 = biological target: T12, M1 (Homo sapiens, UniProt P11229); experiment: Off-target screen, 10 µM single dose (Eurofins); settings: read-out: % Binding Inhibition at 10 μM, M1
T12 construct: purchased Eurofins Panlabs Discovery Services
T12 sequence (P11229 whole entry): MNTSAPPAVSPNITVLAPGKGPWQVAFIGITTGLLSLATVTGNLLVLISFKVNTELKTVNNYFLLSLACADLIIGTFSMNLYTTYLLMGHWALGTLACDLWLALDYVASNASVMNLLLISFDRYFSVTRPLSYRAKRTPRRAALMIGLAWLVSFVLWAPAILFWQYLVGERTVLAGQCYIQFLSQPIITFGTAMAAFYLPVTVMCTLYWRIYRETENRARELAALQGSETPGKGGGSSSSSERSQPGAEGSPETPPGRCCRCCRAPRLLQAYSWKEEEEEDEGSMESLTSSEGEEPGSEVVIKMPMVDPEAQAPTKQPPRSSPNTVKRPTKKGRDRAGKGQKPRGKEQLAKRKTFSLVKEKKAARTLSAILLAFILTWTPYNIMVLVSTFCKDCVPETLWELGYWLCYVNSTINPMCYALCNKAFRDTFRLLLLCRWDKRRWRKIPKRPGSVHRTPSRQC
Description: as §1, §4

MOP = biological target: T13, MOP (Homo sapiens, UniProt P35372); experiment: Off-target screen, 10 µM single dose (Eurofins); settings: read-out: % Binding Inhibition at 10 μM, MOP
T13 construct: purchased Eurofins Panlabs Discovery Services
T13 sequence (P35372 whole entry): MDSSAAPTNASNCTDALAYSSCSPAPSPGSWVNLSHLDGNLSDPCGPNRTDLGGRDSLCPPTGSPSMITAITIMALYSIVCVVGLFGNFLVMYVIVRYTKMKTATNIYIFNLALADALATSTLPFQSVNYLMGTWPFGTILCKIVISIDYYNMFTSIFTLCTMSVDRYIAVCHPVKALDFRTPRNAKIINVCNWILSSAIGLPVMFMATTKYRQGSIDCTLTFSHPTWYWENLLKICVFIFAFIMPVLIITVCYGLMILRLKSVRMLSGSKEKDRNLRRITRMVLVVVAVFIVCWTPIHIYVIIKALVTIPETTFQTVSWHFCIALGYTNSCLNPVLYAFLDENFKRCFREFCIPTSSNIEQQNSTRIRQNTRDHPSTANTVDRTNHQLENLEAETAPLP
Description: as §1, §4

NET = biological target: T14, NET (Homo sapiens, UniProt P23975); experiment: Off-target screen, 10 µM single dose (Eurofins); settings: read-out: % Binding Inhibition at 10 μM, NET
T14 construct: purchased Eurofins Panlabs Discovery Services
T14 sequence (P23975 whole entry): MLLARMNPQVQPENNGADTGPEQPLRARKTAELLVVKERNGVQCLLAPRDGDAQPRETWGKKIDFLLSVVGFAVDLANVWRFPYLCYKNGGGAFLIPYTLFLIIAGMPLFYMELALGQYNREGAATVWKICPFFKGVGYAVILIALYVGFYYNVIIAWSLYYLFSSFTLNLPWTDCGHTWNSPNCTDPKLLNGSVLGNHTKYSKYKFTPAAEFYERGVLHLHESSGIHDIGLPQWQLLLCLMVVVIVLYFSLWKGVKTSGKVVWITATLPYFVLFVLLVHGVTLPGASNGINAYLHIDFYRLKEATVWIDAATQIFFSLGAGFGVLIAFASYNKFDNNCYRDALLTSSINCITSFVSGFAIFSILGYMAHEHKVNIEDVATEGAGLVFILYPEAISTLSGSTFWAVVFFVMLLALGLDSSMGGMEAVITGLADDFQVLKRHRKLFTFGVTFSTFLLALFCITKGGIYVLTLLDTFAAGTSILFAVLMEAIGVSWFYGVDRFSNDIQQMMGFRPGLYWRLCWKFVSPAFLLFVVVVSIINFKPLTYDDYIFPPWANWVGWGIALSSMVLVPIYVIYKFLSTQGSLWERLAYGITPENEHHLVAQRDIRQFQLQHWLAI
Description: as §1, §4

SERT = biological target: T15, SERT (Homo sapiens, UniProt P31645); experiment: Off-target screen, 10 µM single dose (Eurofins); settings: read-out: % Binding Inhibition at 10 μM, SERT
T15 construct: purchased Eurofins Panlabs Discovery Services
Description: as §1, §4

nAChR (α4/β2) = biological target: T16, nAChR (α4/β2) (Homo sapiens, UniProt P17787+P43681); experiment: Off-target screen, 10 µM single dose (Eurofins); settings: read-out: % Binding Inhibition at 10 μM, nAChR (α4/β2)
T16 construct: purchased Eurofins Panlabs Discovery Services
T16 sequence (P43681 29-627 limits assumed): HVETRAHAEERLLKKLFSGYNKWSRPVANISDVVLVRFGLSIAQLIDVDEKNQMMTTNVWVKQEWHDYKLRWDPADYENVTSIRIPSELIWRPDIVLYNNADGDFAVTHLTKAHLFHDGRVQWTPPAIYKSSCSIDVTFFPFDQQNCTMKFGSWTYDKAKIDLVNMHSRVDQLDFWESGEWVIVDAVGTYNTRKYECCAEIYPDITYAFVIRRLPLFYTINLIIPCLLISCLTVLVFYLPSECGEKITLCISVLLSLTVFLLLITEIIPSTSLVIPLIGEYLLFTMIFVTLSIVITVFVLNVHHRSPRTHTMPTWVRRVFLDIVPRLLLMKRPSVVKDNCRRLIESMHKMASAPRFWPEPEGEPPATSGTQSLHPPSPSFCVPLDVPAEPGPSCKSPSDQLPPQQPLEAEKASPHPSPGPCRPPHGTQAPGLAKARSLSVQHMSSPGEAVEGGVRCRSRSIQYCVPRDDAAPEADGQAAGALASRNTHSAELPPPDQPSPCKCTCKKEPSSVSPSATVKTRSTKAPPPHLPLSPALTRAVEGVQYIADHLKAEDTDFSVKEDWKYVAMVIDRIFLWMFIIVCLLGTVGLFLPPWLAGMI
T16 sequence (P17787 26-502): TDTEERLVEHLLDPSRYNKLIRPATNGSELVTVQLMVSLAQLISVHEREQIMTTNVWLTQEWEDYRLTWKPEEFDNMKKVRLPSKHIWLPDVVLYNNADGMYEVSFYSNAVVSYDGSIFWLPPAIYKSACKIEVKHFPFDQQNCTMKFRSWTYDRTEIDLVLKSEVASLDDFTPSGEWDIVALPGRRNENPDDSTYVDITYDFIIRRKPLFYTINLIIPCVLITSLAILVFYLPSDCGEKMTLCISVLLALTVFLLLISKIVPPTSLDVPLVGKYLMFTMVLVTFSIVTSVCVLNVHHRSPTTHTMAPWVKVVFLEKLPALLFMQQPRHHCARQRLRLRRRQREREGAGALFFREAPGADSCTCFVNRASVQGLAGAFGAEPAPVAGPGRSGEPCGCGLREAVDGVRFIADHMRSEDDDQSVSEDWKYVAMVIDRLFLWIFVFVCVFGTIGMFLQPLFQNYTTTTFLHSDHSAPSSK
Description: as §1, §4

β2 Adrenergic receptor = biological target: T17, β2 Adrenergic receptor (Homo sapiens, UniProt P07550); experiment: Off-target screen, 10 µM single dose (Eurofins); settings: read-out: % Binding Inhibition at 10 μM, β2 Adrenergic receptor
T17 construct: purchased Eurofins Panlabs Discovery Services
Description: as §1, §4

MAO-B = biological target: T18, MAO-B (Homo sapiens, UniProt P27338); experiment: Off-target screen, 10 µM single dose (Eurofins), enzymatic functional readout; format: biochemical; settings: n = 2, read-out: % Binding Inhibition at 10 μM, MAO-B
T18 construct: purchased Eurofins Panlabs Discovery Services
Description: as §1, with “Results are presented as mean ± standard error of the mean (SEM) from at least three independent experiments.” left out, “Single-dose (10 µM) off-target in vitro screening was performed in duplicate by Eurofins Panlabs Discovery Services (Supplementary Table 5).” left out
as §3

CCN(CC)C(=O)[C@H]1CCCc2c1c1c(OC)cccc1n2CC[18F] [[^18F]GE180]
reduction in affinity for A147T TSPO in vitro (A147T TSPO): 5 fold

COc1ccc(-c2nn3c(C)cc(C)nc3c2CC(=O)N(C)c2ccccc2)cc1 [DPA-813]
Ki (WT human TSPO [1]): 6.2 ± 1.9 nM | increase in affinity to WT TSPO versus parent compound (WT human TSPO [2]): ~ 3 fold | increase in affinity to A147T TSPO versus parent compound (A147T human TSPO): ~ 32 fold | Ki (A147T human TSPO): 3.1 ± 0.9 nM | binding affinity to rat TSPO (rat TSPO): subnanomolar | chromatographic logD [3]: 3.6 | % Binding Inhibition at 10 μM, Central Benzodiazepine Receptor [4]: 51% | inhibition at 10 µM (5-HT2A): 1% | inhibition at 10 µM (5-HT2B): 25% | inhibition at 10 µM (CB1): 4% | inhibition at 10 µM (CB2): -16% | inhibition at 10 µM (D1): 13% | inhibition at 10 µM (D2L): 10% | inhibition at 10 µM (DAT): 10% | inhibition at 10 µM (M1): -13% | inhibition at 10 µM (MOP): 15% | inhibition at 10 µM (NET): 3% | inhibition at 10 µM (SERT): 4% | inhibition at 10 µM (nAChR (α4/β2)): 4% | inhibition at 10 µM (β2 Adrenergic receptor): -1% | inhibition at 10 µM (MAO-B): 10%

Cc1cc(C)n2nc(-c3ccc(OCCF)cc3)c(CC(=O)N(C)c3ccccc3)c2n1 [DPA-814]
Ki (WT human TSPO [1]): 7.3 ± 0.5 nM | increase in affinity to WT TSPO versus parent compound (WT human TSPO [2]): 3 fold | increase in affinity to A147T TSPO versus parent compound (A147T human TSPO): 46 fold | Ki (A147T human TSPO): 5.7 ± 1.8 nM | binding affinity to rat TSPO (rat TSPO): subnanomolar | chromatographic logD [3]: 3.7 | % Binding Inhibition at 10 μM, Central Benzodiazepine Receptor [4]: 18% | inhibition at 10 µM (5-HT2A): 4% | inhibition at 10 µM (5-HT2B): 30% | inhibition at 10 µM (CB1): -6% | inhibition at 10 µM (CB2): -22% | inhibition at 10 µM (D1): 24% | inhibition at 10 µM (D2L): 11% | inhibition at 10 µM (DAT): 7% | inhibition at 10 µM (M1): -14% | inhibition at 10 µM (MOP): 24% | inhibition at 10 µM (NET): 4% | inhibition at 10 µM (SERT): 2% | inhibition at 10 µM (nAChR (α4/β2)): 1% | inhibition at 10 µM (β2 Adrenergic receptor): 0% | inhibition at 10 µM (MAO-B): 47%
